The test concerns CEM cells HIV-1 protection, formazan growth assay. Briefly: NCI AIDS Antiviral Assay. As to conditions: for pIC50: measured here: growth of uninfected CEM cells. The gist of the method:
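Protection of CEM cells against HIV-1 was scored from cell growth (soluble formazan) across five concentrations, with parallel uninfected cells. Lack of protection may reflect toxicity.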

pEC50, pIC50: −log10 of the molar value. Active and inactive are the calls of the source.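 The calls were made as follows: active = compounds giving half or more protection of infected cells from virus-caused growth loss, again on retest; inactive = the rest.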

For `O=[N+]([O-])c1ccc(O)c(C=NCC2CCCN3CCCCC23)c1` (stereo not given), the pEC50 (commonly the negative decadic logarithm of the EC50, by convention in mol/L) was below 3.70 and the pIC50 (usually the negative decadic logarithm of the IC50, by convention in mol/L) was 4.40.
With `COC1=CC(=O)C(=O)c2ccc(C)nc21`, the result was inactive.
For `CCOc1ccc(/C=C2/NC(=S)N(CN3CCCCC3)C2=O)cc1`, the pEC50 is below 3.70 and the pIC50 is 4.14.
For the compound `CC(C)CCSSCCC(C)C`, the pEC50 was below 3.70 and the pIC50 was below 3.70.
For `CC(C)c1ccccc1NC(=O)C(=O)Cc1nc2ccccc2s1`, the result was inactive.
Consider `CCOC(=O)C(=O)Nc1nc2c(OCC)cccc2s1`, for which the outcome was inactive.
Same read-out and setting: with `C[N+](C)(C)CC1CCCC(C[N+](C)(C)C)C1O` (stereo not given) the entry was “inactive”.
As to `CC(C)(C)OC(=O)C1CC[C@@H](CC(=O)Oc2ccc([N+](=O)[O-])cc2)N1` (stereo not given in full), the pEC50 is below 3.70 and the pIC50 is below 3.70.
With `O=C1c2ccccc2C(=O)N1/N=C\c1ccc(Br)cc1`, the pEC50 is below 4.66 and the pIC50 is below 4.66.
Take `CC(C)C[C@H]1[C@@H](OCc2ccccc2)COS(=O)(=O)N1[C@H](C)c1ccccc1`: the pEC50 was below 3.70 and the pIC50 was 4.95.
For `CC1=CC(C)(C)[C@H]2O[C@@]3(O)C[C@]4(C)[C@H]5C[C@@](C(C)C)(O[C@H]4c4ccoc4)O[C@H]4[C@]5(C3)O[C@@]1(O)[C@]24O`, the pEC50 is below 4.00 and the pIC50 was below 4.00.
For `Cc1ccc(S(=O)(=O)N/N=C2\CCCCCCCCCCC2CN(C)C)cc1` (stereo not given), the pEC50 is below 3.70 and the pIC50 is 4.55.
Take `COc1ccc(S(=O)(=O)NC(C)C(=O)O)cc1` (stereo not given): the result was inactive.
Turning to `C=CC(C)(C)n1cc(C2=C(O)C(=O)C(c3cn(C(C)(C)C=C)c4ccccc34)=C(OC(C)=O)C2=O)c2ccccc21`, the pEC50 was below 4.70 and the pIC50 is 5.97.
Take `Nn1c(SCC(=O)O)nc2ccccc2c1=O`: the pEC50 was below 3.70 and the pIC50 was below 3.70.
As for `CN(C)CC1CCCCCC(CN(C)C)C1=O` (stereo not given), the pEC50 was below 4.70 and the pIC50 was 5.97.
Turning to `C#CCOCn1cnc2ncnc(Cl)c21`, the pEC50 was below 2.95 and the pIC50 was below 3.70.
The matching figures for `C[C@]1(CI)OC(=O)N2CCC[C@H]21`: below 3.05 and below 3.05.
In the case of `COc1ccc(C(=O)O/N=C2/CCCCC2CN(C)C)cc1` (stereo not given), the outcome was inactive.
Consider `CC(=O)OC[C@@H](OC(C)=O)[C@@H](OC(C)=O)[C@H]1OC[C@@H]2C[C@H]([C@H]1OC(C)=O)N(Cc1ccccc1)O2`, for which the pEC50 is 4.03 and the pIC50 was below 3.70.
Take `O=C(Nc1ccccc1)N1N=C(c2ccccc2)C1c1ccccc1` (stereo not given): the pEC50 was below 3.70 and the pIC50 was 4.61.
For `COC(=O)C1Cc2c([nH]c3ccccc23)C(c2ccccc2O)N1` (stereo not given), the result was inactive.
On to `COC(=O)/C(C#N)=C/Sc1ccccc1`, for which the outcome was inactive.
With `COC1(OC)CC2C(=O)N(Cc3ccccc3)C1C(S(=O)(=O)c1ccccc1)C2C(C)S(=O)(=O)c1ccccc1` (stereo not given), the pEC50 was below 4.63 and the pIC50 is below 4.63.
Turning to `COc1cccc(OC)c1C(=O)OCc1ccccc1`, the pEC50 was below 4.02 and the pIC50 is below 4.02.
Turning to `CCOC(=O)C(=Cc1ccccc1OC)C(=O)OCC`, the pEC50 was below 3.89 and the pIC50 is 4.66.
For `Brc1ccc2c(c1)C1=C(CO2)Cc2ccccc2O1`, the outcome was inactive.
Consider `COc1ccc(CSCc2cc(OC)c(OC)c(OC)c2)cc1`, for which the pEC50 is below 3.70 and the pIC50 is 4.59.
The matching figures for `CCOC(=O)/C(C#N)=C/c1ccc2c(c1)CC1(C2)Cc2cc(CC)c(C(C)O)cc2C1` (stereo not given): below 3.70 and 5.44.
Take `CC(C)CCC[C@@H](C)[C@H]1CCC2[C@@H]3CC[C@H]4C[C@@H](CCC=C(c5cc(Cl)c(OCc6ccc(-c7ccc(C(=O)O)cc7)cc6)c(C(=O)O)c5)c5cc(Cl)c(OCc6ccc(-c7ccc(C(=O)O)cc7)cc6)c(C(=O)O)c5)CC[C@]4(C)[C@H]3CC[C@@]21C` (stereo not given in full): the pEC50 was below 3.70 and the pIC50 was 3.77.
For `C/C(=C1/N=C(c2cc([N+](=O)[O-])ccc2Cl)N(c2cccc(C)c2)C1=O)c1cc2ccccc2oc1=O`, the pEC50 is below 5.12 and the pIC50 is below 5.12.
For the compound `NS(=O)(=O)c1ccc(NC(NC(=O)C(C(F)(F)F)C(F)(F)F)(C(F)(F)F)C(F)(F)F)cc1`, the pEC50 was below 3.70 and the pIC50 was below 3.70.
For `COc1cc(/C=C/c2ccc3ccccc3n2)cc(OC)c1OC`, the pEC50 is below 4.65 and the negative-log IC50 (pIC50) was 5.83.
In the case of `CC(C)CCC[C@@H](C)[C@H]1CC[C@H]2[C@@H]3CC[C@H]4C[C@@H](NC(=O)CC=C(c5cc(Cl)c(O)c(C(=O)O)c5)c5cc(Cl)c(O)c(C(=O)O)c5)CC[C@]4(C)[C@H]3CC[C@]12C`, the pEC50 was 4.62 and the pIC50 is 3.77.
For `COc1ccc(NS(=O)CCCc2ccccc2)cc1` (stereo not given), the pEC50 was below 3.70 and the pIC50 is 4.78.
For `O=NC1C(=O)NC(=O)NC1=O`, the pEC50 is below 3.70 and the pIC50 was below 3.70.
On to `Cn1nc(-c2ccccc2)c(C(=O)/C=C/c2ccccc2)c(N2CCCCC2)c1=O`, for which the pEC50 was below 4.62 and the negative logarithm of the IC50 (pIC50) was below 4.62.
As for `C=CCC1C2CCC(O[Si](C(C)C)(C(C)C)C(C)C)(C(C(=O)OC)C2)C1O` (stereo not given), the pEC50 was below 3.70 and the pIC50 was 4.04.
On to `Cc1c(NC(=O)CCl)c(=O)oc2c(C)c3occc(=O)c3cc12`, for which the pEC50 was below 4.39 and the pIC50 was 6.69.
With `COc1ccc(/C(=N/O)c2ccccc2-c2nc3ccccc3c(=O)n2-c2ccc(S(=O)(=O)Nc3ncccn3)cc2)cc1C`, the pEC50 is below 3.70 and the pIC50 is 4.31.
Turning to `CN(C)c1ccc2c(c1)C(=O)N(OS(=O)(=O)c1ccccc1)C2=O`, the result was inactive.
For `Cc1cc(=O)[nH]c(-n2[nH]c(C)c(CCO)c2=O)n1`, the pEC50 is below 3.70 and the pIC50 was below 3.70.
Regarding `C=CCn1c(=S)sc2c(=O)[nH]cnc21`, the pEC50 is below 2.95 and the pIC50 was 3.71.
The matching figures for `CCCCCCCCSC(SCCCCCCCC)=C1C(=O)N(c2ccccc2)N=C1C`: below 4.54 and below 4.54.
`CS/C(=C(\S)c1ccccc1)c1ccccc1`: the result was inactive.
For `N#CC1=C(N)N(/N=C/c2ccco2)C(c2ccco2)C1(C#N)C#N` (stereo not given), the pEC50 is below 3.70 and the pIC50 was 5.10.
Consider `CCCc1cc(=O)oc2c3c(cc(OC)c12)O[C@H](C)[C@H](C)[C@@H]3O`, for which the pEC50 is below 3.70 and the pIC50 was 4.41.
On the same counts, the results for `COC(=O)C(=O)C(C(=O)C(=O)Nc1ccc([N+](=O)[O-])cc1)c1nc2ccccc2[nH]c1=O` (stereo not given) are below 3.24 and 4.14.
For `CC(C)c1ccc2c(c1)CCC1C(C)(C)[C@@H](O)CC[C@]21C` (stereo not given in full), the pEC50 is below 4.18 and the pIC50 is 4.43.
Consider `CC(C)OC(=O)Nc1c([N+](=O)[O-])cc(C(F)(F)F)cc1[N+](=O)[O-]`, for which the result was inactive.
Take `CCOP(=O)(C/C=C\Cn1cnc(C(N)=O)c1N)OCC`: the pEC50 is below 3.70 and the pIC50 is below 3.70.
For the compound `C[N+](C)(CCO)CCN1c2ccccc2Sc2ccccc21`, the pEC50 is below 3.70 and the pIC50 was below 3.70.
Take `C=CCC(O)C1=CC(=O)c2c(O)ccc(O)c2C1=O` (stereo not given): the result was inactive.
Turning to `COC1/C=C/OC2(C)Oc3c(C)c(O)c4c(O)c(c(/C=N/N5CCOCC5)c(O)c4c3C2=O)NC(=O)C(C)=C/C=C\C(C)C(O)C(C)C(O)C(C)C(O)C1C` (stereo not given), the pEC50 was below 3.90 and the pIC50 was 4.14.
With `C=C1C(=O)C23OC2C1CCC(=O)C1(C)CC[C@H](OC(C)=O)C(C)(C)[C@H]1CC3O` (stereo not given in full), the pEC50 was below 3.70 and the pIC50 is 5.92.
Turning to `N=C1SCC(=O)N1CCN1C(=N)SCC1=O`, the pEC50 is below 4.10 and the pIC50 is below 4.10.
With `CSC(SC)=C(C(=O)O)P(=O)(O)O`, the pEC50 is below 3.70 and the pIC50 was below 3.70.
With `O=C1C2=C(C(=O)c3ccccc31)C(O)(S(=O)(=O)O)C(O)(S(=O)(=O)O)C1N=CC=CC21` (stereo not given), the pEC50 is below 3.70 and the pIC50 is 5.47.
Regarding `C/C(O)=c1\cc(C#N)c(=C(C#N)C#N)nc1C`, the outcome was inactive.
In the case of `CCOC(=O)N1CCC(=O)C(CNC23CC4CC(CC(C4)C2)C3)C1` (stereo not given), the pEC50 is below 2.38 and the pIC50 was 3.69.
In the case of `COc1cc(C(O)c2ccc3c(c2)OCO3)cc(OC)c1OC` (stereo not given), the pEC50 is below 3.70 and the pIC50 is 4.06.
With `CC1=C(C#N)C(=N)OC1(C)C1CC(=O)C=CC1=O` (stereo not given), the pEC50 is below 3.70 and the pIC50 is 4.98.
On to `Cc1nn(C(=O)CC(=O)Nc2ccccc2Cl)c(C)c1N=Nc1ccccc1Cl`, for which the outcome was inactive.
Consider `Cc1[nH]nc2c(N(C)C)ncnc12`, for which the pEC50 was below 3.70 and the pIC50 was 3.77.
For the compound `O=C1c2n[nH]nc2C(=O)c2n[nH]nc21`, the pEC50 was below 3.70 and the pIC50 is below 3.70.
Regarding `Cc1noc(NS(=O)(=O)c2ccc(NC(=S)/N=C/c3c(O)[nH]c(=O)[nH]c3=O)cc2)c1C`, the pEC50 was below 3.70 and the pIC50 is below 3.70.
On to `Cc1cc(S(=O)(=O)Nc2nc(N)nc(N3N=CCC3C)n2)c(S)cc1Cl` (stereo not given), for which the pEC50 is 4.26 and the pIC50 was below 3.70.
As to `C=C1CC2CC(=O)C(O)C(C1)C2` (stereo not given), the pEC50 is below 3.70 and the pIC50 is below 3.70.
Turning to `CC1NCC(O)C(O)C1O` (stereo not given), the pEC50 is below 4.31 and the pIC50 is below 4.31.
With `Cc1ccccc1N=O`, the pEC50 is below 3.70 and the pIC50 was 5.01.
For the compound `Cc1ccc2ccc(-c3cc4ccccc4s3)nc2c1`, the result was inactive.
As to `CCOC(=O)/C(C#N)=C\c1ccc(N(CCC(=O)O)CCC(=O)O)c(I)c1`, the pEC50 was below 3.30 and the pIC50 is below 3.30.
For the compound `CC12c3c4cccc3Oc3cc(N)cc(c31)Oc1cc(N)cc(c12)O4`, the pEC50 is below 3.70 and the pIC50 is 5.54.

Values taken from PubChem BioAssay AID179 (DTP/NCI, 2004).
